In patent publication US7939672B2, “Phenylacetate derivatives or pharmaceutically acceptable salts thereof, preparation method thereof and composition for prevention or treatment of diseases induced by activation of T-type calcium ion channel containing the same as an active ingredient” (Korea Institute of Science and Technology, priority 2008, dated 2011):
Read-outs that look alike come from different tables or passages of the source.

Key:
[1] = target: T1, α1G T-type calcium ion channels (Homo sapiens, UniProt O43497); test: Ion current inhibition on T-type calcium ion channels using a patch clamp (HEK293 cells); assay type: cell-based
T1 construct: host or cells: HEK293
Description: Measurement of Ion Current Inhibition on T-Type Calcium Ion Channels Using a Patch Clamp
(1) Cell Culture and Preparation
20 hours prior to the use of the medium for expression of hERG channels, the Tet-expression system was activated by treating the medium with 1 μg/ml doxycycline.
The cells in the experiment was passaged once in three days, and collected when the cells were grown to 50˜80% confluency in the Petri dish. […] Trypsin was removed using a centrifuge, an extracellular solution was added, and cells floating automatically by a Patchliner were used at room temperature.
(2) Experimental Solution
As a solution composition for measurement of activation of T-type calcium ion channels, 140 mM NaCl, 2 mM CaCl2, 4 mM KCl, 1 mM MgCl2, 5 mM D-glucose, and 10 mM HEPES (pH 7.4) were used for an extracellular solution, and 50 mM KCl, 10 mM NaCl, 60 mM KF, 2 mM MgCl2, 10 mM HEPES, and 20 mM EGTA (pH 7.2) were used for an intracellular solution. To maintain the pre-cellular state, a seal reinforced solution was added. When T-type calcium ion channel expression cells were used, an extracellular solution supplemented with 10 mM Ba^2+ was added and records about the result were made.
(3) Electro-Physiological Technique and Data Processing
The current was measured through an EPC10 amplifier (HEKA, Germany) by a precellular patch clamp technique using NPC©-16 Patchliner (Nanion Technologies, Germany). Cell suspensions and various experimental solutions were automatically aliquotted into chips (NPC-16 Chip, Nanion Technologies, Germany) by experimental devices. A cell membrane potential was fixed at −100 mV for measurement of activation of T-type calcium ion channels. When a low polarization was performed at −20 mV for 300 ms, the inward current was measured at ten-second intervals.
The IC50 graphs and values were obtained from the automatic calculation of inhibition rates of the peak current using an experimental data analysis program IGOR Pro (WaveMetrics, USA).

[2] = test system: spinal nerve ligation animal model; details: Barton et al. 2005; cited from earlier work
[3] = test system: T-type calcium ion channel; details: T-type versus L-type; cited from earlier work
[4] = patch clamp, HEK293 α1G cells, unit nM, read-out: IC50 (μM), cells marked
[5] = read-out: % inhibition rate (10 μM), 10 μM, peak inward current, HEK293 cells expressing α1G T-type channel
[6] = patch clamp, HEK293 α1G cells, 10 nM to 100 μM, read-out: IC50

T1 sequence (O43497 whole entry): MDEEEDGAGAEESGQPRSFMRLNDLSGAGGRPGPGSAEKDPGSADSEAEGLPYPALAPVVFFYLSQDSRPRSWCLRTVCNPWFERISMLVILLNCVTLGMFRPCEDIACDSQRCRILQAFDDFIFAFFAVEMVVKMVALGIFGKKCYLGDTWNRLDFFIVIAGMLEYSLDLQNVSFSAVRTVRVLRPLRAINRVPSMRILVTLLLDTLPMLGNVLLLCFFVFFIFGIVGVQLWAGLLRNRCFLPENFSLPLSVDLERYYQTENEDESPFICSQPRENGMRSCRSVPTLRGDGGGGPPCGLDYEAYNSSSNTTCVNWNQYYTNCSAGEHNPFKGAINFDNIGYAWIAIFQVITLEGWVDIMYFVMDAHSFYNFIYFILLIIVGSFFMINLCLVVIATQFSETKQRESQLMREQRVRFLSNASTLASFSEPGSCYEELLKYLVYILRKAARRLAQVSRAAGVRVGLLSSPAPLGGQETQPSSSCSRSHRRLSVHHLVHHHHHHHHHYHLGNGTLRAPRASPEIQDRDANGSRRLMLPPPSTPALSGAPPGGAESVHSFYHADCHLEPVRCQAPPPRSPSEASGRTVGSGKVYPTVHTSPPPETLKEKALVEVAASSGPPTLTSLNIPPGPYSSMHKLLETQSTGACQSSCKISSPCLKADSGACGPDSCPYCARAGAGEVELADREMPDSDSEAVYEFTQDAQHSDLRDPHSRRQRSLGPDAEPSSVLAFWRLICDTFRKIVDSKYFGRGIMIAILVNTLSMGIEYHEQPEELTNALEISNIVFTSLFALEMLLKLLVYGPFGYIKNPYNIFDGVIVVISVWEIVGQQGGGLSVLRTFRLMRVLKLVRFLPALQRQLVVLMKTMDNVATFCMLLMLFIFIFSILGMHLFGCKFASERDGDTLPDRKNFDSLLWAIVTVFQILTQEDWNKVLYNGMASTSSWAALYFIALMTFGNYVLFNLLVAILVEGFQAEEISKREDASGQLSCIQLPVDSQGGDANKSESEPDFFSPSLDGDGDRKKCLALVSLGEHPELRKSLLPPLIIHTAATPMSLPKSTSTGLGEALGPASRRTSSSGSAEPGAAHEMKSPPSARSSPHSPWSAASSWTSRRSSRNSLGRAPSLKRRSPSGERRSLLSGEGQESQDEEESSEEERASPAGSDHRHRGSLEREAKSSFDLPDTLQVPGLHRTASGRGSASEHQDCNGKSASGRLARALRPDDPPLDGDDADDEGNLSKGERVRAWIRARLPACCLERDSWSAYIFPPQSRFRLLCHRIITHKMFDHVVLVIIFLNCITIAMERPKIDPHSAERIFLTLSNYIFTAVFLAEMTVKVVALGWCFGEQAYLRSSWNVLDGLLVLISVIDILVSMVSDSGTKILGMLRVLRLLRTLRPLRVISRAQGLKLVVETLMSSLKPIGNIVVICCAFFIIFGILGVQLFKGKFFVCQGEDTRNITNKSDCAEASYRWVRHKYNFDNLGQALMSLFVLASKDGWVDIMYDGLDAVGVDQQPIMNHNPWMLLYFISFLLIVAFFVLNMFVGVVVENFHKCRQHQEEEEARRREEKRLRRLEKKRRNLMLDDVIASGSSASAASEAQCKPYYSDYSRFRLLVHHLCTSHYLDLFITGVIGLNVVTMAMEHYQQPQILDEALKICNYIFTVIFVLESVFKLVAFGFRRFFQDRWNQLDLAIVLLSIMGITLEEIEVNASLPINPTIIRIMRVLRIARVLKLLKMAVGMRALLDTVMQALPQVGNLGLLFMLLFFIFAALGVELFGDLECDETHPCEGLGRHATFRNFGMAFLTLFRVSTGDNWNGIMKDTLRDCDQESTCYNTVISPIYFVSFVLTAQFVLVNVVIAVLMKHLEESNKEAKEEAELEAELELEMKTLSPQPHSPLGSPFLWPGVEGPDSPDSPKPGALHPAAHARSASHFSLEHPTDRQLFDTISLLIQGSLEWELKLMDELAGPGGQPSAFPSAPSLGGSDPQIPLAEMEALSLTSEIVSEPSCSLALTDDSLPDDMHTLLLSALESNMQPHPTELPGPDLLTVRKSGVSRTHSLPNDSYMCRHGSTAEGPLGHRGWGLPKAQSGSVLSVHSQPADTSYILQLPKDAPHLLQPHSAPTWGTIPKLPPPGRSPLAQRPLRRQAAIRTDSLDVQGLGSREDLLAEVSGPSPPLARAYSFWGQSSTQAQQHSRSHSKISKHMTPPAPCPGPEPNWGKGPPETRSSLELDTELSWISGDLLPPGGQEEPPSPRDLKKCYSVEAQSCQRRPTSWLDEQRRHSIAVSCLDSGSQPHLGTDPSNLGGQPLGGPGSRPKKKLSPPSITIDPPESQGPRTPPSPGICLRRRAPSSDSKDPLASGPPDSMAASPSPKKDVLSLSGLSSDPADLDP

Row | Structure (SMILES) | inhibition at 10 µM [1, 5] | IC50 [1, 6] | also measured
1 | COC(=O)C(CCCN(C)CCCc1nc2ccccc2[nH]1)(c1ccc(Br)cc1)C(C)C (centres unmarked) [Embodiment 1, 5-{[3-(1H-benzimidazole-2-yl)propyl]methylamino}-2-(4-bromophenyl)-2-isopropylpentanoic acid methyl ester] | 96.9 ± 0.59% | – | IC50 [1, 4]: 8.17 ± 0.48 nM
2 | COC(=O)C(CCCN(C)CCCc1nc2ccccc2[nH]1)(c1ccc(OC)cc1)C(C)C (centres unmarked) [Embodiment 4] | 93.5 ± 3.2% | 190 ± 1 nM | –
3 | COC(=O)C(CCCN(C)CCCc1nc2cc(OC)ccc2[nH]1)(c1ccc(OC)cc1)C(C)C (centres unmarked) [Embodiment 5] | 91.7 ± 1.9% | 880 ± 70 nM | –
4 | CCOC(=O)C(CCCN(C)CCCc1nc2ccccc2[nH]1)(c1ccccc1)C(C)C (centres unmarked) [Embodiment 10] | 98.3 ± 0.9% | 250 ± 5 nM | –
5 | CCOC(=O)C(CCCN(C)CCCc1nc2cc(C)c(C)cc2[nH]1)(c1ccccc1)C(C)C (centres unmarked) [Embodiment 11] | 91.4 ± 0.4% | 100 ± 10 nM | –
6 | COC(=O)C(CCCN(C)CCCc1nc2cc(C)c(C)cc2[nH]1)(c1ccc(Br)cc1)C(C)C (centres unmarked) [Embodiment 12] | 94.2 ± 0.4% | – | IC50 [1, 4]: 53 ± 4.87 nM
7 | COC(=O)C(CCCN(C)CCCc1nc2cc(OC)ccc2[nH]1)(c1ccc(Br)cc1)C(C)C (centres unmarked) [Embodiment 13] | 94.5 ± 1.2% | 250 ± 10 nM | –
8 | CCOC(=O)C(CCCN1CCN(Cc2ccc(OC)cc2)CC1)(c1ccccc1)C(C)C (centres unmarked) [Embodiment 23, ethyl 2-isopropyl-5-(4-(4-methoxybenzyl)piperazine-1-yl)-2-phenylpentanoate] | 96.3 ± 1.7% | 340 ± 20 nM | –
9 | CCOC(=O)C(CCCN1CCN(Cc2ccc(F)cc2)CC1)(c1ccccc1)C(C)C (centres unmarked) [Embodiment 26, ethyl 5-(4-(4-fluorobenzyl)piperazine-1-yl)-2-isopropyl-2-phenylpentanoate] | 94 ± 2.5% | 260 ± 30 nM | –
10 | COC(=O)C(CCCN1CCN(Cc2ccccc2F)CC1)(c1ccc(Br)cc1)C(C)C (centres unmarked) [Embodiment 30, methyl 2-(4-bromophenyl)-5-(4-(2-fluorobenzyl)piperazine-1-yl)-2-isopropylpentanoate] | 90.4 ± 3.2% | 740 ± 20 nM | –
11 | COC(=O)C(CCCN1CCN(Cc2cccc(F)c2)CC1)(c1ccc(Br)cc1)C(C)C (centres unmarked) [Embodiment 31, methyl 2-(4-bromophenyl)-5-(4-(3-fluorobenzyl)piperazine-1-yl)-2-isopropylpentanoate] | 89.3 ± 1.6% | 980 ± 110 nM | –
12 | COC(=O)C(CCCN1CCN(Cc2ccc(F)cc2)CC1)(c1ccc(Br)cc1)C(C)C (centres unmarked) [Embodiment 32, methyl 2-(4-bromophenyl)-5-(4-(4-fluorobenzyl)piperazine-1-yl)-2-isopropylpentanoate] | 96.5 ± 1.7% | 1110 ± 50 nM | –
13 | COC(=O)C(CCCN1CCN(Cc2ccc(C(F)(F)F)cc2)CC1)(c1ccc(Br)cc1)C(C)C (centres unmarked) [Embodiment 34, methyl 2-(4-bromophenyl)-2-isopropyl-5-(4-(4-(trifluoromethyl)benzyl)piperazine-1-yl)pentanoate] | – | – | IC50 [1]: 280 ± 20 nM; inhibition at 10 µM ([1]; HEK293, read-out: % inhibition rate (10 μM)): 93 ± 1.5%
14 | COC(=O)C(CCCN1CCN(c2ccccc2OC)CC1)(c1ccc(Br)cc1)C(C)C (centres unmarked) [Embodiment 35, methyl 2-(4-bromophenyl)-2-isopropyl-5-(4-(2-methoxyphenyl)piperazine-1-yl)pentanoate] | 94.1 ± 1.5% | – | IC50 [1, 4]: 95 ± 14.8 nM
15 | COC(=O)C(CCCN1CCN(Cc2ccc(OC)cc2)CC1)(c1ccc(Br)cc1)C(C)C (centres unmarked) [Embodiment 38, methyl 2-(4-bromophenyl)-2-isopropyl-5-(4-(4-methoxybenzyl)piperazine-1-yl)pentanoate] | 96 ± 1.7% | 480 ± 80 nM | –
16 | COC(=O)C(CCCN1CCN(Cc2ccc(OC)c(OC)c2OC)CC1)(c1ccc(Br)cc1)C(C)C (centres unmarked) [Embodiment 39, methyl 2-(4-bromophenyl)-2-isopropyl-5-(4-(2,3,4-trimethoxybenzyl)piperazine-1-yl)pentanoate] | 95.1 ± 1.9% | 320 ± 10 nM | –
17 | COC(=O)C(CCCN1CCN(Cc2cccc(C)c2)CC1)(c1ccc(Br)cc1)C(C)C (centres unmarked) [Embodiment 40, methyl 2-(4-bromophenyl)-2-isopropyl-5-(4-(3-methylbenzyl)piperazine-1-yl)pentanoate] | 94.9 ± 1.5% | 390 ± 30 nM | –
18 | CCC1(C)CC(=O)NC1=O (centres unmarked) [Ethosuximide] | – | – | reversal of mechanic and thermal induction [2]: dosage-dependent reversed mechanic and thermal induction
19 | COCC(=O)O[C@]1(CCN(C)CCCc2nc3ccccc3[nH]2)CCc2cc(F)ccc2[C@@H]1C(C)C [mibefradil] | 95.9 ± 1.7% | – | reversal of mechanic and thermal induction [2]: dosage-dependent reversed mechanic and thermal induction; more inhibitory activity to the T-type than to the L-type [3]: 10 to 30 times
